Assays:
[1] = test system: A549 lung carcinoma cells; assay: cell death assay (trypan blue exclusion, ATP levels); type: cell-based, human; details: for effect of channel inhibitor on HAMLET-induced cell death: 30 minutes pretreatment, HAMLET three hours
Description: (§1) Cells were detached from cell culture flasks with versen (0.2 g EDTA in 200 ml H2O and 800 ml PBS), washed with PBS and resuspended in serum-free RPMI-1640. HAMLET dissolved in PBS was incubated with cells (0.5×10^6/ml for A549, A498 and HeLa cells; 1×10^6/ml for Jurkat) at 37° C. FCS was added after 1 hour. Cell death was quantified by trypan blue exclusion (Chroma Gesellschaft Schmid & Co) or by measuring ATP levels (ATPlite Kit, PerkinElmer, Infinite 200, Tecan). Light images were captured using the HOLOMONITOR™ M2 digital holographic microscope (Phase Holographic Imaging AB, Lund, Sweden).
For studies with inhibitors, cells were pretreated for 30 minutes. Inhibitors used were Gadolinium chloride (GdCl3, 100 μM), Barium chloride (BaCl2, 1 mM), Ruthenium red (30 μM), tetrandrine (10 μM) and amiloride (1 mM), all from Sigma Aldrich. For p38 inhibition, SB202190 (20 μM, Sigma Aldrich) or BIRB796 (10 μM, Axon Medchem) dissolved in DMSO was used. The wells were washed twice with PBS and new medium with inhibitor was added. For RNA interference, FlexiTube siRNA Premixes against MAPK11 (SI00606053), MAPK14 (SI00300769) and All Star Negative Control siRNA (SI03650318) from Qiagen was used. A549 forward was transfected using 25 nM final siRNA concentration in 24-well plate. After 48 hours, knockdown was examined by Western blot (anti-p38, 1:1000, Cell Signaling) and RT-PCR (MAPK14, QT00079345, QIAGEN).
To examine if functional ion channels are important for the tumoricidal activity of HAMLET, A549 lung carcinoma cells in suspension were pretreated with the channel inhibitors for 30 minutes and exposed to increasing concentrations of HAMLET for three hours.
A549 cells were seeded to a density of 0.8-1.0×10^6 cells/well in RPMI without FCS. Different volumes of HAMLET/oleate and oleic acid solutions were added. The cells were incubated for 1 hour at 37° C. 5% CO2 for 1 hour before 50 μl of FCS (5% final concentration) were added to the wells. The cells were then further incubated for additional 2 hours before the viability were determined by trypan blue exclusion and ATP measurements.

[2] = test system: lung carcinoma, kidney carcinoma and lymphoma cells; assay: HAMLET-induced change in cell morphology (light microscopy, real-time imaging); type: cell-based; details: for effect of ion channel inhibitor on HAMLET-induced change in cell morphology: light microscopy
Description: as §1
For live cell imaging, cells were pre-treated with SB202190 for 30 minutes, nuclei were stained with Hoechst 33342 (Invitrogen) and Alexa-Fluor 568-labeled HAMLET (10% labeled HAMLET, Molecular Probes) was added in serum-free medium. FCS was added after 1 hour. Fluorescence was detected with pinhole settings corresponding to 1 airy unit. The cells were kept at 37° C., 5% CO2 and examined unfixed by LSM510 DUO confocal microscopy (Carl Zeiss).
To examine if the HAMLET-induced change in carcinoma cell morphology was modified by the channel inhibitors, lung carcinoma, kidney carcinoma and lymphoma cells were exposed to HAMLET in the presence or absence of ion channel inhibitors and examined by light microscopy (FIG. 2C).
To determine if p38 signaling was involved in cell death, we inhibited p38α and p38β in lung and kidney carcinoma and Jurkat lymphoma cells with two small-molecule p38 inhibitors: SB202190, a highly specific pyridinyl-imidazole inhibitor; and BIRB796, a diaryl urea compound, which bears little structural similarity to SB202190 (Fabian et al., 2005, Nature Biotechnology 23: 329-336), ([…] and FIG. 12B). […] The effect of p38 inhibition on cell death was also observed by real-time confocal imaging of lung carcinoma cells exposed to fluorescently labeled HAMLET.

[3] = test system: kidney carcinoma (A498) cells; assay: cell death assay with p38 inhibitors; type: cell-based, human; details: SB202190 20 μM or BIRB796 10 μM; HAMLET 3 h
Description: FIG. 4. p38 inhibition rescues carcinoma and lymphoma cells from death and morphological change in response to HAMLET. (A, B) p38 inhibition (SB202190, 20 μM) rescued carcinoma (A549 and A498) and T-cell lymphoma (Jurkat) cells from death in response to HAMLET (7-49 μM, 3 h). Viability was quantified by Trypan blue exclusion (A) or as ATP levels (B). Data are means+SEMs for 3 independent experiments. (C) Real-time images of cell morphology after HAMLET exposure, showing that p38 inhibition prevents morphological changes in carcinoma cells (nuclear condensation, rounding up and blebbing). (D-E) A549 lung carcinoma cells were transfected using siRNA against p38α/MAPK14 and/or p38β/MAPK11 or non-targeting siRNA. Relative MAPK11 and MAPK14 mRNA levels are shown (MAPK/GAPDH, in % of non-transfected cells) as means+SEMs for 4 independent experiments. […] (F) The cytotoxic effect of HAMLET was quantified 48 hours after transfection as reduction in ATP levels. […]
FIG. 12. […] Viability was quantified by ATP levels.
Cells were detached from cell culture flasks with versen (0.2 g EDTA in 200 ml H2O and 800 ml PBS), washed with PBS and resuspended in serum-free RPMI-1640. […] Cell death was quantified by trypan blue exclusion (Chroma Gesellschaft Schmid & Co) or by measuring ATP levels (ATPlite Kit, PerkinElmer, Infinite 200, Tecan). […]

[4] = test system: potassium channels in A549, lung carcinoma cell lines; assay: FLUXOR potassium (K^+) channel assay, Thallium (Tl^+) indicator; type: cell-based, human; details: carcinoma cells, 30 minutes pretreatment, HAMLET 35 μM
Description: The FLUXOR™ potassium (K^+) channel assay was performed on the TECAN infinite F200 (Tecan Group, Switzerland), according to the manufacturer's instructions (Invitrogen). Briefly, this involved FLUXOR™ loading buffer (Hank's Balanced Saline Solution, (HBSS) buffered with 20 mM HEPES and pH adjusted to 7.4 with NaOH. POWERLOAD™ concentrate and water-soluble Probenecid were used respectively to enhance the dye solubility and retention, respectively. Media were removed from the cell plates manually, and 80 μL of loading buffer containing the FLUXOR™ dye mix was applied to each well. Once inside the cell, the nonfluorescent AM ester form of the FLUXOR™ dye is cleaved by endogenous esterases into a thallium-sensitive indicator. The dye was loaded for 60 minutes at room temperature and then removed with the supernatant. After washing with dye-free PBS buffer, a final volume of 80 μL assay buffer containing water-soluble probenecid was added. Cells received one of the following channel inhibitors: 3.3 μL per well of 30 mM amiloride, 3.0 μL of 32 mM BaCl2, 1.8 μL of 5.4 mM gadolinium, 3 μL 3.2 mM tetrandrine and 2.3 μL of 2.6 mM ruthenium red, and were then incubated at room temperature (23-25° C.) for 30 minutes to allow equilibration of the test compounds. Prior to injection, stimulation buffer was prepared from the chloride-free buffer and thallium reagents provided in the kit as well as HAMLET, to achieve a final added concentrations of 2 mM free Tl+ and 35 μM HAMLET after 1:5 dilution upon injection of the stimulus buffer onto cells that had been loaded with FLUXOR™ dye.
(§2) To distinguish Ca^2+ mobilization from intracellular stores from the influx of extracellular Ca^2+, EGTA was then added to the cell medium. […] K^+ fluxes across tumor cell membranes were subsequently quantified under the same experimental conditions, using the fluorophore FLUXOR™, which fluoresces after thallium has entered cells through K^+ channels.
Potassium channel activity was therefore measured in A549, lung carcinoma cell lines using an indicator, which emits fluorescence signal upon entering the cells via opened potassium channels, Thallium (Tl^+) indicator (FIG. 18).

[5] = test system: lung carcinoma cells (A549); assay: intracellular Ca^2+, Fluo-4, real time confocal microscopy; type: cell-based, human
Description: To examine if HAMLET modulates ion channel activity in tumor cells, we first quantified changes in intracellular Ca^2+ and K^+. Lung carcinoma cells were first preloaded with the Fluo-4 Ca^2+ fluorophore Fluo-, exposed to HAMLET (35 μM) and examined by real time confocal microscopy for changes in fluorescence intensity (FIG. 1A). The Ca^2+ ionophore A23187, which acts as a Ca^2+ shuttle across cell membranes, was used as a positive control (Abbott et al., 1979, Antimicrobial Agents and Chemotherapy 16, 808-812).
as §2
(§3) To further characterize ion channel activation by HAMLET, carcinoma cells were pretreated with defined channel blockers. Amiloride is a sodium channel inhibitor with effects on mechanosensitive channels, barium chloride (BaCl2) is a general K^+ channel inhibitor, gadolinium chloride (GdCl3) inhibits mechanosensitive channels, Ruthenium red is a general Ca^2+ inhibitor and tetrandrine inhibits large conductance, Ca^2+ activated K^+ channels. The carcinoma cells were preincubated with Fluo-4 as described above, pretreated with each of the channel inhibitors for 30 minutes, exposed to HAMLET (35 μM) and examined by real time confocal imaging. Furthermore, cells treated with EGTA were compared to cells with intact extracellular Ca^2+ levels, to distinguish the early peak from the subsequent influx of Ca^2+ (FIG. 1B, Table in FIG. 8).

[6] = test system: Human renal tubular epithelial cells (HRTEC); assay: Ca^2+ and K^+ levels in healthy, differentiated cells in primary culture; type: cell-based
Description: Human renal tubular epithelial cells (HRTEC) were preincubated with Fluo-4 as described, exposed to HAMLET (35 μM) and examined by real time confocal microscopy.
as §3

tumor cells = assay: Tumoricidal Activity of Oleate-HAMLET (cell death method of Example 1); type: cell-based

Cc1ccc(-n2nc(C(C)(C)C)cc2NC(=O)Nc2ccc(OCCN3CCOCC3)c3ccccc23)cc1 [BIRB796]
effect of p38 inhibitor on death in response to HAMLET ([1]; SB202190 20 μM or BIRB796 10 μM, HAMLET 3 h): rescued | effect of p38 inhibitor on morphological changes associated with HAMLET induced cell death ([2]; BIRB796 10 μM, HAMLET 35 μM, 3 h): diminishes the morphological changes | effect of p38 inhibitor on death in response to HAMLET [3]: rescued

[Cl][Gd]([Cl])[Cl] [GdCl3, Gadolinium chloride, reference compound]
effect of channel blocker on K^+ flux in response to HAMLET [4]: strongly inhibited | effect of channel inhibitor on HAMLET-induced cell death [1]: no effect on viability | effect of ion channel inhibitor on HAMLET-induced change in cell morphology [2]: did not prevent the morphological changes | effect of channel blocker on first, EGTA insensitive Ca^2+ peak in response to HAMLET ([5]; 30 minutes pretreatment, HAMLET 35 μM): inhibited | effect of channel blocker on response to HAMLET in healthy cells [6]: no effect

N.N.N.N.N.N.N.N.N.N.N.N.N.N.[Cl-].[Cl-].[Cl-].[Cl-].[Cl-].[Cl-].[O-2].[O-2].[Ru+3].[Ru+3].[Ru+4] [Ruthenium red, ammoniated ruthenium oxychloride]
effect of channel inhibitor on HAMLET-induced cell death [1]: no effect on viability | effect of ion channel inhibitor on HAMLET-induced change in cell morphology [2]: did not prevent the morphological changes

CNc1ccc2oc(C[C@H]3O[C@@]4(CC[C@H]3C)O[C@H]([C@H](C)C(=O)c3ccc[nH]3)[C@H](C)C[C@H]4C)nc2c1C(=O)O [ionophore, reference compound]
cells involved in Ca^2+ response [5]: all cells | intracellular Ca^2+ response ([5]; HAMLET 35 μM): more drastic and sustained increase in intracellular Ca^2+ levels than HAMLET | Ca^2+ response in HRTECs ([6]; HAMLET 35 μM): rapid and sustained increase in Ca^2+

B1: Oleate-HAMLET: complex from EDTA treated alphalactalbumin converted on a column conditioned with sodium oleate (protein, UniProt P00709 20-142, looked up)
Alpha-lactalbumin: KQFTKCELSQLLKDIDGYGGIALPELICTMFHTSGYDTQAIVENNESTEYGLFQISNKLWCKSSQVPQSRNICDISCDKFLDDDITDDIMCAKKILDIKGIDYWLAHKALCTEKLEQWLCEKL
modifications: sodium oleate complex
tumoricidal activity compared with OA complex (tumor cells): at least as tumoricidal as the OA complex | Trypan blue (tumor cells; 0.5 mg/ml, Control 88): 1 | ATP Activity (tumor cells; 0.5 mg/ml, Control 100): 27%

Source: patent US9487561B2, “Biologically active complex and its preparation” (HAMLET PHARMA AB, priority 2010, dated 2016)
